Laboratory results from PubChem BioAssay AID651650 (Sanford-Burnham Center for Chemical Genomics, 2012).
Activity calls are given as the source filed them.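 How the source made its calls: active means mean IC50 below 20 µM in each of the two panels, so potent in both; inactive means the rest.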

Target: Neuropilin-1 (Homo sapiens) (UniProt O14786)
Experiment: blockers of CendR peptide binding to NRP-1 – biochemical, FP and AlphaScreen panel, dose response (AID 651650)
Conditions: NRP-1 b1b2 / RPARPAR peptide binding, FP or AlphaScreen
[1] = AlphaScreen, run 1, individual panel run IC50
[2] = FP, run 1, individual panel run IC50
[3] = FP, run 2, individual panel run IC50

Neuropilin-1 (Homo sapiens), sequence (O14786 whole entry, looked up): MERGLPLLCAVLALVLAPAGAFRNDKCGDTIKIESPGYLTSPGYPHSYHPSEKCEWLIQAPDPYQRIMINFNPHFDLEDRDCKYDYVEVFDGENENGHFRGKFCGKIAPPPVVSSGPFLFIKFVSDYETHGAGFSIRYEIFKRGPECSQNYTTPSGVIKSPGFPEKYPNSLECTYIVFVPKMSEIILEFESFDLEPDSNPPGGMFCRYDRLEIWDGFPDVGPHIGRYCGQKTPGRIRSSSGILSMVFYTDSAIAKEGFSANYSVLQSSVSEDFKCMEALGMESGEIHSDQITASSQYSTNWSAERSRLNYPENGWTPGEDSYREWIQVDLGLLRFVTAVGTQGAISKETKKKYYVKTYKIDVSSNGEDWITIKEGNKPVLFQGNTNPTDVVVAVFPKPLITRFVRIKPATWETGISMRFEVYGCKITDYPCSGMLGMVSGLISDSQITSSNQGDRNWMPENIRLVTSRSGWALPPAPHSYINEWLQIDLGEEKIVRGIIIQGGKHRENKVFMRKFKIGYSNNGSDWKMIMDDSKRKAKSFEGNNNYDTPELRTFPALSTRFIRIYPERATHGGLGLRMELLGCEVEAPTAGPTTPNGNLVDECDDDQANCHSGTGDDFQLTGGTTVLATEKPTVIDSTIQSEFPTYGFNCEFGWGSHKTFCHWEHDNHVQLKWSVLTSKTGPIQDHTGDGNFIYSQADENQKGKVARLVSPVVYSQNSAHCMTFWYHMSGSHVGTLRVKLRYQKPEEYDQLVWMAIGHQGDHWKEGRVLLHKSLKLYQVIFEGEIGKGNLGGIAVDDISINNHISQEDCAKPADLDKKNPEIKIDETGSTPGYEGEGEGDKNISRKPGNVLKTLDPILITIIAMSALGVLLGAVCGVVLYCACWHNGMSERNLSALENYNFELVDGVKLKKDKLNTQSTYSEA

## CCc1cccc(NC(=O)CCc2c(C)nn(-c3ccc(N4CCOCC4)nn3)c2C)c1
AlphaScreen, mean of runs
  IC50: inactive
[1]
  IC50: 40.2 µM
FP, mean of runs
  IC50: > 95 µM (inactive)
[2]
  IC50: > 95 µM
[3]
  IC50: > 95 µM

## CC(=O)Nc1ccccc1OCC(=O)N(Cc1ccccc1)C(C)C
AlphaScreen, mean of runs
  IC50: > 100 µM (inactive)
[1]
  IC50: > 100 µM
FP, mean of runs
  IC50: > 95 µM (inactive)
[2]
  IC50: > 95 µM
[3]
  IC50: > 95 µM

## C=CCOc1c(CNc2ncn[nH]2)cccc1OCC
AlphaScreen, mean of runs
  IC50: > 100 µM (inactive)
[1]
  IC50: > 100 µM
FP, mean of runs
  IC50: 9.9 µM
[2]
  IC50: 9.93 µM
[3]
  IC50: > 95 µM

## Cc1ccc(Cn2nnnc2CN2CCC(n3nnc4ccccc43)CC2)cc1
AlphaScreen, mean of runs
  IC50: > 100 µM (inactive)
[1]
  IC50: > 100 µM
FP, mean of runs
  IC50: > 95 µM (inactive)
[2]
  IC50: > 95 µM
[3]
  IC50: > 95 µM

## CCC1Nc2ncnc(N3CCCCC3)c2N(Cc2ccc(C)cc2)C1=O (stereo not given)
AlphaScreen, mean of runs
  IC50: > 100 µM (inactive)
[1]
  IC50: > 100 µM
FP, mean of runs
  IC50: > 95 µM (inactive)
[2]
  IC50: > 95 µM
[3]
  IC50: > 95 µM

## O=c1ccsn1Cc1ccccc1
AlphaScreen, mean of runs
  IC50: > 100 µM (inactive)
[1]
  IC50: > 100 µM
FP, mean of runs
  IC50: > 95 µM (inactive)
[2]
  IC50: > 95 µM
[3]
  IC50: > 95 µM

## O=C(O)c1cccc(N2C(=O)c3cc([N+](=O)[O-])cc4cc([N+](=O)[O-])cc(c34)C2=O)c1
AlphaScreen, mean of runs
  IC50: > 100 µM (inactive)
[1]
  IC50: > 100 µM
FP, mean of runs
  IC50: > 95 µM (inactive)
[2]
  IC50: > 95 µM
[3]
  IC50: > 95 µM
